Reference: patent publication US8927580B2, “Thiosemicarbazone compounds and use in the treatment of cancer” (Oncochel Therapeutics LLC, priority 2010, dated 2015)

Experiments:
[1] = mouse, in vivo
[2] = tested on: CFPAC-1 pancreatic cancer cells; assay: MTT proliferation assay, CFPAC-1; assay type: cell-based; settings: Homo sapiens; CFPAC-1, MTT, 72 h
Experimental: (§1) The pancreatic cancer cell lines, including MIAPaCa-2, PANC 1, CAPAN-2 and CFPAC-1 were a generous gift from Prof. Andrew Biankin (Garvan Institute, NSW, Australia). The MIAPaCa-2, PANC 1 and CFPAC-1 cell lines were grown in DMEM medium (Invitrogen) and CAPAN-2 cells were grown in McCoy's medium (Invitrogen). All media was supplemented with 10% (v/v) fetal calf serum (Invitrogen), 1% (v/v) non-essential amino acids (Invitrogen), 1% (v/v) sodium pyruvate (Invitrogen), 2 mM L-glutamine (Invitrogen), 100 μg/mL of streptomycin (Invitrogen), 100 U/ml penicillin (Invitrogen), and 0.28 μg/mL of fungizone.
(§2) To further examine the spectrum of anti-proliferative activity, Dp4cycH4mT was tested against pancreatic cancer in vitro, performing MTT proliferation assays with PANC 1, MIAPaCa-2, CFPAC-1 and CAPAN-2 pancreatic cancer cells. As a comparison, currently used treatments for pancreatic cancer including gemcitabine and 5-fluorouracil were also tested. The iron chelator, DFO, was included as a positive control.
(§3) Table 2A. Anti-proliferative activity of Dp4cycH4mT against pancreatic cancer cell lines. Growth and antiproliferative activity IC50 (μM) values of Dp4cycH4mT in a variety of pancreatic cell lines and in comparison to DFO and the clinically used drugs gemcitabine and 5-fluorouracil as determined by the MTT assay. Cells were seeded and allowed to attach to wells for 24 h and then incubated for 72 h at 37° C. with control medium or the chelators. Results are mean±SD (3 experiments).
as §3, with “2B.” for “2A.”, “IC90” for “Growth and antiproliferative activity IC50”

[3] = tested on: PANC 1 pancreatic cancer cells; assay: MTT proliferation assay, PANC 1; assay type: cell-based; settings: Homo sapiens; PANC 1, MTT, 72 h
Experimental: as §1, §2, §3
as §3, with “2B.” for “2A.”, “IC90” for “Growth and antiproliferative activity IC50”

NDRG1 = assay: Western blot analysis, NDRG1 expression; assay type: cell-based; settings: MIAPaCa-2 cells
Experimental: (§4) Western analysis was performed via established protocols (Gao, J. and D. R. Richardson (2001). Blood 98: 842-50). The primary antibodies used were against NDRG1 (Abcam; UK), p21, cyclin D1, transferrin receptor 1 (TfR1; Santa Cruz, CA, USA) and β-actin (Sigma-Aldrich), with secondary HRP-conjugated goat and mouse antibodies (Sigma-Aldrich).
(§5) Dp4cycH4mT was examined to determine whether it could up-regulate NDRG-1 expression. To further evaluate the effect of the chelator Dp4cycH4mT on other key molecules involved in cell cycle progression, the expression of the cyclin-dependent kinase inhibitor, p21, as well as cyclin D1 in MIAPaCa-2 cells was also examined.

cyclin D1 = assay: Western blot analysis, cyclin D1 levels; assay type: cell-based; settings: MIAPaCa-2 cells
Experimental: as §4, §5

[4] = tested on: MIAPaCa-2 pancreatic cancer cells; assay: MTT proliferation assay, MIAPaCa-2; assay type: cell-based; settings: Homo sapiens, MIA PaCa-2; MIAPaCa-2, MTT, 72 h
Experimental: as §1, §2, §3
as §3, with “2B.” for “2A.”, “IC90” for “Growth and antiproliferative activity IC50”

[5] = tested on: PANC 1 human pancreatic carcinoma; assay: PANC 1 xenograft in nude mice: tumour growth; assay type: in vivo, nude mice (BALBc nu/nu); settings: for average tumour size (% of the original tumour size): after 6 weeks; for final tumour weight: after 43 days
Experimental: FIG. 5). […] (5 mg/kg) or vehicle control.

p21 = assay: Western blot analysis, p21 expression; assay type: cell-based; settings: MIAPaCa-2 cells
Experimental: as §4, §5

[6] = tested on: transferrin receptor 1 (TfR1); assay: Western blot analysis, transferrin receptor 1 levels; assay type: cell-based; settings: MIAPaCa-2 cells
Experimental: as §4, §5

[7] = tested on: CAPAN-2 pancreatic cancer cells; assay: MTT proliferation assay, CAPAN-2; assay type: cell-based; settings: Homo sapiens; CAPAN-2, MTT, 72 h
Experimental: as §1, §2, §3
as §3, with “2B.” for “2A.”, “IC90” for “Growth and antiproliferative activity IC50”

metmyoglobin (metMb) = assay: metMb formation in vivo; parameters: species or system C57BL6 mice; settings: 6 mg/kg intravenously, 30 min post-administration, heart
Experimental: FIG. 14. Effect of thiosemicarbazone chelators on metMb-formation in vivo. MetMb levels after Dp44mT Triapine® or Dp4cycH4mT treatment in vivo at a dose of 6 mg/kg administered intravenously via the tail vein. Mice in the control group were treated with vehicle alone. At 30 min post-administration, whole hearts were collected for determination of metMb levels.
Mouse heart tissue was exhaustively perfused with ice-cold HBSS to remove blood and homogenized in ice-cold HBSS containing protease inhibitor cocktail (Roche, Basel, Switzerland). Heart homogenates were centrifuged (16,000×xg/45 min/4° C.) and the supernatant ([oxyMb]=50 μM) used immediately.
(§6) The levels of metHb and metMb in RBC lysates were determined using a Shimadzu UV-Vis spectrophotometer (UV-1800; Shimadzu Corporation, Kyoto, Japan) at 577 nm and 630 nm for metHb and metMb in accordance with published methods (Winterbourn CC and Carrell R W (1977). Biochem J 165: 141-148).
(§7) C57BL6 mice (7-8 weeks-old) were used under a protocol approved by the university of Sydney Animal Ethics Committee. Dp44mT, Triapine® or Dp4cycH4mT (all at 6 mg/kg) were dissolved in 30% propylene glycol/saline and administered iv via the tail vein. Subsequently, 30 min after administration, mice were anesthetized with isoflurane and blood samples obtained by cardiac puncture. Blood samples were lysed with 2.5 volumes of ultrapure water for metHb estimation. Mice were sacrificed with isoflurane, the heart exhaustively perfused with HBSS and Mb isolated.

[8] = tested on: human RBCs (methemoglobin formation); assay type: cell-based; settings: 3 h, 25 μM
Experimental: FIG. 12. Effect of DFO and thiosemicarbazone chelators on metHb-formation in vitro. Whole RBCs were incubated with 1-25 μM chelator at 37° C. for 3 h. Cells were lysed with ultra-pure H2O and metHb levels were measured spectrophotometrically. Results are the mean±SD from 3 experiments.
Whole blood samples were collected from healthy human donors or mice in suitable blood collection tubes containing EDTA and used immediately. Red blood cells (RBCs) were isolated by centrifugation (480 xg/5 min/4° C.) then washed in Hank's balanced salt solution (HBSS). RBCs were resuspended 1:1 in HBSS and whole RBC assays were carried out at 37° C.
as §6
The effect of chelator concentration (1-25 μM) on metHb-generation with intact RBCs was assessed (FIG. 12). […] At 25 μM, these chelators increased metHb formation to 19.95±1.0 and 19.9±3.0% of total Hb, respectively (FIG. 12). The negative control chelator Dp2mT, by design, features a methyl group that hinders complex formation. Accordingly, this chelator cannot participate in the redox-interaction with iron that gives rise to metHb formation (FIG. 12).

[9] = tested on: DMS-53 human lung carcinoma; assay: DMS-53 xenograft in nude mice, i.v. administration: tumour growth; assay type: in vivo, nude mice (BALBc nu/nu); settings: 0.75 mg/kg
[10] = DMS-53 xenograft oral study: body and organ weights, haematology, biochemistry, histology; assay type: in vivo, nude mice (BALBc nu/nu)
methemoglobin (metHb) = assay: metHb formation in vivo; parameters: species or system C57BL6 mice; settings: 6 mg/kg intravenously, blood taken after 30 min
Experimental: FIG. 13. Effect of thiosemicarbazone chelators on metHb-formation in vivo. MetHb after Dp44mT, Triapine® or Dp4cycH4mT treatment in vivo at a dose of 6 mg/kg administered intravenously via the tail vein. Mice in the control group were treated with vehicle alone. At 30 minutes post-administration, whole blood was collected for determination of metHb levels.
as §6, §7

[11] = tested on: DMS-53 human lung carcinoma; assay: DMS-53 xenograft in nude mice, oral gavage: tumour growth; assay type: in vivo, nude mice (BALBc nu/nu); settings: 10 mg/kg, 21 days
[12] = DMS-53 xenograft i.v. study: body and organ weights, haematology, histology; assay type: in vivo, nude mice (BALBc nu/nu)
[13] = gemcitabine 5 mg/kg intra-peritoneally every 3rd day

Compound: Nc1ccn([C@@H]2O[C@H](CO)[C@@H](O)C2(F)F)c(=O)n1 [Gemcitabine, gemcitabine]
- KIDNEY Fe (score for presence of iron stained by Perl's stain) [1]: −
- LIVER HP (histopathological changes) [1]: N
- LUNG HP (histopathological changes) [1]: N
- MYOCARDIUM Fibrosis [1]: −
- MYOCARDIUM HP (histopathological changes) [1]: N
- SPLEEN HPC (score for the presence of haematopoietic cells in the splenic red pulp) [1]: N
- iron deposits in the kidney [1]: no evidence of iron deposits
- IC50 [2]: 0.02 ± 0.02 µM
- IC90 [2]: 30.4 ± 2.2 µM
- IC50 [3]: 11 ± 0.8 µM
- IC90 [3]: > 5 µM
- NDRG1 expression (NDRG1): no marked effect
- cyclin D1 levels (cyclin D1): did not modulate
- IC50 [4]: 0.02 ± 0.005 µM
- IC90 [4]: > 5 µM
- Tumour weight ([5]; Gemcitabine 5 mg/kg/day): 0.07 ± 0.02 g
- average tumour size (% of the original tumour size) [5, 13]: 319%
- final tumour weight [5, 13]: 67 ± 25 mg
- p21 expression (p21): did not modulate
- TfR1 levels [6]: did not modulate
- IC50 [7]: 40.8 ± 4.7 µM
- IC90 [7]: > 5 µM

Compound: NC(=S)NN=Cc1ncccc1N [Triapine®, 3-aminopyridine-2-carboxaldehyde thiosemicarbazone]
- levels of metMb (metmyoglobin (metMb)): 75.2±4.2%
- metHb formation (% of total Hb) [8]: 19.95±1.0 % of total Hb

Compound: CN(C)C(=S)NN=C(c1ccccn1)c1ccccn1 [Dp44mT, di-2-pyridylketone 4,4-dimethyl-3-thiosemicarbazone, reference compound]
- KIDNEY Fe (score for presence of iron stained by Perl's stain) [1]: +/−
- SPLEEN HPC (score for the presence of haematopoietic cells in the splenic red pulp) [1]: N
- iron deposits in the kidney [1]: iron deposits were observed
- Tumour weight [9]: 0.1 ± 0.02 g
- net tumour size (% of the initial tumour volume) ([9]; after 25 days): 122%
- NDRG1 expression (NDRG1): significantly (p<0.01) up-regulated
- cyclin D1 levels (cyclin D1): significantly (p<0.05) reduced
- levels of metMb (metmyoglobin (metMb)): 82.3±2.6%
- average tumour size (% of the original tumour size) ([5]; 0.4 mg/kg i.v. 5 days/week): 305%
- final tumour weight ([5]; 0.4 mg/kg i.v.): 122 ± 33 mg
- p21 expression (p21): markedly (p<0.05) increasing
- myocardial lesions (Gomori-Trichrome stain) ([10]; Dp44mT 0.75 mg/kg, Dp4e4mT.HCl 3 weeks at 2.5, 5, 7.5 and 10 mg/kg oral): myocardial lesions were observed
- histology of the liver, spleen, kidney, brain or tumour (H & E) vs control ([10]; Dp44mT 2 weeks at 0.75 mg/kg, Dp4e4mT.HCl 3 weeks at 2.5, 5, 7.5 and 10 mg/kg oral): no significant differences
- Body weight (% initial) ([10]; oral, 10 mg/kg): 93.6 ± 1.8 % initial
- Brain weight ([10]; oral, 10 mg/kg): 0.363 ± 0.008 g
- Heart weight ([10]; oral, 10 mg/kg): 0.102 ± 0.005 g
- Kidney weight ([10]; oral, 10 mg/kg): 0.208 ± 0.004 g
- Liver weight ([10]; oral, 10 mg/kg): 0.88 ± 0.02 g
- Lung weight ([10]; oral, 10 mg/kg): 0.133 ± 0.008 g
- Spleen weight ([10]; oral, 10 mg/kg): 0.081 ± 0.005 g
- metHb (% of total Hb) (methemoglobin (metHb)): 6.3±0.8 % of total Hb
- Tumour weight [11]: 0.46 ± 0.1 g
- histology of the liver, spleen, kidney, brain or tumour (H & E) vs control ([12]; 2 weeks i.v., Dp44mT 0.75 mg/kg, Dp4e4mT.HCl 4 and 6 mg/kg): no significant differences
- myocardial lesions (Gomori-Trichrome stain) ([12]; 2 weeks i.v., Dp44mT 0.75 mg/kg, Dp4e4mT.HCl 4 or 6 mg/kg): myocardial lesions were observed
- change in red blood cell count, haemoglobin or white blood cell count ([12]; after 2 weeks, Dp44mT 0.75 mg/kg, Dp4e4mT.HCl 1.5, 4 or 6 mg/kg i.v.): no significant change
- HCT ([12]; i.v., 0.75 mg, average): 0.43
- HGB ([12]; i.v., 0.75 mg, average): 135.50 g/L
- PLT ([12]; i.v., 0.75 mg, average): 1274.50 10 × 9 cells/L
- RBC ([12]; i.v., 0.75 mg, average): 9.87 10 × 12 cells/L
- WBC ([12]; i.v., 0.75 mg, average): 5.38 10 × 9 cells/L
- Body weight (% of initial weight) ([12]; i.v., 0.75 mg/kg): 91.01 ± 5.3 % initial weight
- Brain weight ([12]; i.v., 0.75 mg/kg): 0.32 ± 0.01 g
- Heart weight ([12]; i.v., 0.75 mg/kg): 0.11 ± 0.01 g
- Kidney weight ([12]; i.v., 0.75 mg/kg): 0.23 ± 0.01 g
- Liver weight ([12]; i.v., 0.75 mg/kg): 1.04 ± 0.05 g
- Spleen weight ([12]; i.v., 0.75 mg/kg): 0.13 ± 0.02 g
- weight loss (% of initial weight) ([12]; i.v., 0.75 mg/kg): 9%
